Experiments:
hPPARα = target: T1, hPPARα (Homo sapiens, UniProt Q07869); experiment: Crossreactive receptor transcriptional assay (Gal4 hybrid); format: cell-based; conditions: activity of standard ligand at 20 μM
T1 construct: 166-468; expressed in transfected cells; host or cells: CHO cells, transient transfection
T1 sequence (Q07869 166-468): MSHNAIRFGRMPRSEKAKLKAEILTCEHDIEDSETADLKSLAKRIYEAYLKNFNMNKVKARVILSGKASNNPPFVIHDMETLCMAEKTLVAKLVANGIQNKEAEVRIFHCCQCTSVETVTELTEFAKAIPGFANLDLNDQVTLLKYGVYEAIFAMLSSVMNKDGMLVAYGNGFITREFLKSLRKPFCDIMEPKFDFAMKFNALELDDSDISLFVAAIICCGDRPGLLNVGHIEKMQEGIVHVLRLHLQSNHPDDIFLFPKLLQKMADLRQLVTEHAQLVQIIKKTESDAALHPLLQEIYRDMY
Description: (§1) A firefly luciferase reporter gene for Gal4 DBD hybrid receptors, such as Gal4-RORγ, contains five copies of the Gal4 17-mer response element in its promoter and the coding sequence for firefly luciferase (pG5-luc, Promega). CHO (Chinese Hamster Ovary) cells were cultured in Ham's F12 medium supplemented with 10% fetal calf serum (Gemini Biologicals), 10 μg/ml penicillin and streptomycin, and were maintained in a humidified 37° C. incubator (Thermo Electron, Steri-Cycle) with 5% CO2. 24 hours before transfection, cells were plated in T175 flasks (5×10^6 cells/flask) or T75 flasks (1.7×10^6 cells/flask). Transient transfection of CHO cells was performed using TransIT-CHO reagents (Minis, Madison, Wis.) with a mixing ratio of 2:6:1 between plasmid DNA (in μg), TransIT-CHO (in μl) and CHO-mojo (in μl).
(§2) Plates are maintained at 37° C. in a humidified atmosphere with 7% CO2 overnight. Four (4) hours after cell seeding, compounds dissolved in DMSO at 10 mM were added to cells at final concentrations of 20 micromolar (μM) to 20 nanomolar (nM) in 0.2% DMSO in triplicate plates. Approximately 40 hours later, cytotoxicity in the assay well was characterized by addition of the dye resazurin (O'Brien, Wilson et al. 2000) to a final concentration of 3 μM. […] Percent viability was determined as 2 hour fluorescence, minus background at t=0 hours, normalized to DMSO controls. For detection of luciferase activity, media was removed from plates after the measurement of resazurin conversion, and SteadyLite luciferase reagent (Perkin-Elmer) was added (30 μl/well). Luminescence is detected with a Victor 2-V plate reader (Perkin-Elmer) and normalized to luciferase activity of DMSO control wells alone.

liver triglycerides = experiment: Liver triglycerides after oral dosing in C57BL/6 mice; format: in vivo; conditions: Dex 12.5 mg/kg once 2 days before necropsy
Description: […] A small piece of the liver (˜200 mg) was weighed and extracted to determine triglyceride content. Glycerol was liberated from liver triglycerides by hydrolysis in base. The liver fragment was incubated overnight at 55° C. in 0.35 mls of ethanolic KOH (2 parts EtOH: 1 part 30% KOH) in a closed tube. A solution of 50% ethanol in water was added to bring the volume of each tube to 1.0 ml. The solution was cleared of debris by centrifugation, and the resulting supernatant increased to 1.2 ml with further addition of 50% ethanol. Aqueous 1 M MgCl2 (215 μl) was added to 200 μl of the supernatant, and the mixture was cleared by centrifugation again after standing 10 min on ice. Glycerol levels were measured with the Sigma Free Glycerol Reagent (Sigma-Aldrich, St. Louis, Mo.) according to the manufacturer's instructions. The triglyceride concentration (in milligrams per gram of liver wet weight) was determined by assuming average molecular weight of 1000 daltons for each molecule of triglyceride.

thymocytes = experiment: Thymus weight and thymocyte subpopulations after oral dosing in C57BL/6 mice; format: in vivo
Description: In addition, the total number and the fraction of the major thymocyte subpopulations including CD4^+CD8^+ (DP), CD4^+CD8^- (SP4^+) and CD4^-CD8^+ (SP8^+) were measured by cell surface staining followed by FACS analysis. […] The volume of cells was adjusted to 8 mls. Debris from the thymus was allowed to settle, and a 200 μl aliquot of cells was incubated with fluorescent antibodies to CD4 and CD8 for 15 minutes at room temperature. […] Before analytical flow cytometry was carried out (FACS Calibur, Becton Dickinson), Caltag counting beads (from Invitrogen) were added to allow absolute quantitation of cell number. Thymus subpopulations were determined after gating for live cells. […] Dexamethasone reproducibly induces rapid apoptosis of DP thymocytes and reduction of thymic mass ([…], Drupt et al. 2000; Zubkova, Mostowski et al. 2005).

hPPARδ = target: T2, hPPARδ (Homo sapiens, UniProt Q03181); experiment: Crossreactive receptor transcriptional assay (Gal4 hybrid); format: cell-based
T2 construct: 138-441; expressed in transfected cells; host or cells: CHO cells, transient transfection
T2 sequence (Q03181 138-441): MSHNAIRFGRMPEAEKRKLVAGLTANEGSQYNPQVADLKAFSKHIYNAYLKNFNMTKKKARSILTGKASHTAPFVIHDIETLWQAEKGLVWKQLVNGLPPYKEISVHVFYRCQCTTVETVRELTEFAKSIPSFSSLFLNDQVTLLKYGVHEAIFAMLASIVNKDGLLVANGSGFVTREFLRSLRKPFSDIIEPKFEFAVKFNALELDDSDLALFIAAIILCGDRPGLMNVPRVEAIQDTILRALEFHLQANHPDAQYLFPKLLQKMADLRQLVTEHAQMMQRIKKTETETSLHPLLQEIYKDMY
Description: as §1, §2

[1] = tested on: TH1 cell differentiation from naïve CD4+ T cells; experiment: Differentiation of naïve CD4+ T cells with IL-12 (Th-1 protocol), IFN-γ staining by FACS; format: cell-based, mouse; conditions: Table 8; 10 ng/ml; naïve CD4 cells, 5 days; mean ±SD; no cytokine 0.21
[2] = Dex 12.5 mg/kg once 2 days before necropsy

Molecule: Cc1cccc(Nc2cc(Cl)nc(SCC(=O)O)n2)c1C [WY14643, reference compound]
- Efficacy at hPPARα (hPPARα): 6X

Molecule: C[C@@H]1C[C@H]2[C@@H]3CCC4=CC(=O)C=C[C@]4(C)[C@@]3(F)[C@@H](O)C[C@]2(C)[C@@]1(O)C(=O)CO [Dexamethasone, dexamethasone]
- Liver triglycerides (liver triglycerides): 35.3 ± 8.2 mg/g
- Frequency of DP (% of total cells) (thymocytes; [2]): 4.2 ± 2.9%
- Thymus weight (thymocytes; [2]): 49.7 µg
- Total cells per thymus (×10^−6) DP (thymocytes; [2]): 1.0 ×10^−6
- Total cells per thymus (×10^−6) SP4 (thymocytes; [2]): 3.9 ×10^−6
- Total cells per thymus (×10^−6) SP8 (thymocytes; [2]): 1.2 ×10^−6
- effect on DP thymocytes, in words (thymocytes; dexamethasone positive control, once two days before sacrifice): virtually total depletion of DP thymocytes

Molecule: CC(C)(Oc1ccc(CCNC(=O)c2ccc(Cl)cc2)cc1)C(=O)O [Bezafibrate, bezafibrate, reference compound]
- EC50 (hPPARδ): > 20 µM

B1: IL-12: exogenous cytokine, stimulates TH1 differentiation (protein, UniProt P29459 23-219; P29460 23-328, looked up)
Interleukin-12 subunit alpha: RNLPVATPDPGMFPCLHHSQNLLRAVSNMLQKARQTLEFYPCTSEEIDHEDITKDKTSTVEACLPLELTKNESCLNSRETSFITNGSCLASRKTSFMMALCLSSIYEDLKMYQVEFKTMNAKLLMDPKRQIFLDQNMLAVIDELMQALNFNSETVPQKSSLEEPDFYKTKIKLCILLHAFRIRAVTIDRVMSYLNAS
Interleukin-12 subunit beta: IWELKKDVYVVELDWYPDAPGEMVVLTCDTPEEDGITWTLDQSSEVLGSGKTLTIQVKEFGDAGQYTCHKGGEVLSHSLLLLHKKEDGIWSTDILKDQKEPKNKTFLRCEAKNYSGRFTCWWLTTISTDLTFSVKSSRGSSDPQGVTCGAATLSAERVRGDNKEYEYSVECQEDSACPAAEESLPIEVMVDAVHKLKYENYTSSFFIRDIIKPDPPKNLQLKPLKNSRQVEVSWEYPDTWSTPHSYFSLTFCVQVQGKSKREKKDRVFTDKTSATVICRKNASISVRAQDRYYSSSWSEWASVPCS
- IL-17 (%) [1]: 0.09 ± 0.01%

— US8389739B1, “Modulators of retinoid-related orphan receptor gamma” (Orphagen Pharmaceuticals, priority 2006, dated 2013)
